{
  "source": "patent US12662498B2",
  "about": "(priority 2017, dated 2026)",
  "key": {"[1]": {"assay": "ICH stability study of psilocybin batches (appearance, water content, purity, assay)", "details": "accelerated conditions"}, "[2]": {"assay": "Heat cycling slurry maturation of Psilocybin Pattern A in 24 solvents (visual solubility); note: test concentration or dose not given here"}},
  "data": [
    {"compound": "CN(C)CCc1c[nH]c2cccc(OP(=O)(O)O)c12", "note": "[Polymorph A]", "values": [
      {"measurement": "time stable under accelerated stability testing conditions", "setting": "[1]", "result": 12, "unit": "months"},
      {"measurement": "Obs. 20° C., 0.4 ml", "setting": "[2]; 2-Chlorobutane", "result": "Susp."},
      {"measurement": "Obs. 20° C., 0.8 ml", "setting": "[2]; 2-Chlorobutane", "result": "Susp."},
      {"measurement": "Obs. 20° C., 1.2 ml", "setting": "[2]; 2-Chlorobutane", "result": "Susp."},
      {"measurement": "Obs. 50° C.", "setting": "[2]; 2-Chlorobutane, 1.2 ml", "result": "Susp."},
      {"measurement": "Obs. 20° C., 0.4 ml", "setting": "[2]; 4:1 EtOH/water", "result": "Susp."},
      {"measurement": "Obs. 20° C., 0.8 ml", "setting": "[2]; 4:1 EtOH/water", "result": "Susp."},
      {"measurement": "Obs. 20° C., 1.2 ml", "setting": "[2]; 4:1 EtOH/water", "result": "Susp."},
      {"measurement": "Obs. 50° C.", "setting": "[2]; 4:1 EtOH/water, 1.2 ml", "result": "Susp."},
      {"measurement": "Obs. 20° C., 0.4 ml", "setting": "[2]; 4:1 IPA/water", "result": "Susp."},
      {"measurement": "Obs. 20° C., 0.8 ml", "setting": "[2]; 4:1 IPA/water", "result": "Susp."},
      {"measurement": "Obs. 20° C., 1.2 ml", "setting": "[2]; 4:1 IPA/water", "result": "Susp."},
      {"measurement": "Obs. 50° C.", "setting": "[2]; 4:1 IPA/water, 1.2 ml", "result": "Susp."},
      {"measurement": "Obs. 20° C., 0.4 ml", "setting": "[2]; 4:1 THF/water", "result": "Susp."},
      {"measurement": "Obs. 20° C., 0.8 ml", "setting": "[2]; 4:1 THF/water", "result": "Susp."},
      {"measurement": "Obs. 20° C., 1.2 ml", "setting": "[2]; 4:1 THF/water", "result": "Susp."},
      {"measurement": "Obs. 50° C.", "setting": "[2]; 4:1 THF/water, 1.2 ml", "result": "Susp."},
      {"measurement": "Obs. 20° C., 0.4 ml", "setting": "[2]; Anisole", "result": "Susp."},
      {"measurement": "Obs. 20° C., 0.8 ml", "setting": "[2]; Anisole", "result": "Susp."},
      {"measurement": "Obs. 20° C., 1.2 ml", "setting": "[2]; Anisole", "result": "Susp."},
      {"measurement": "Obs. 50° C.", "setting": "[2]; Anisole, 1.2 ml", "result": "Susp."},
      {"measurement": "Obs. 20° C., 0.4 ml", "setting": "[2]; Benzotrifluoride", "result": "Susp."},
      {"measurement": "Obs. 20° C., 0.8 ml", "setting": "[2]; Benzotrifluoride", "result": "Susp."},
      {"measurement": "Obs. 20° C., 1.2 ml", "setting": "[2]; Benzotrifluoride", "result": "Susp."},
      {"measurement": "Obs. 50° C.", "setting": "[2]; Benzotrifluoride, 1.2 ml", "result": "Susp."},
      {"measurement": "Obs. 20° C., 0.4 ml", "setting": "[2]; CHCl3", "result": "Susp."},
      {"measurement": "Obs. 20° C., 0.8 ml", "setting": "[2]; CHCl3", "result": "Susp."},
      {"measurement": "Obs. 20° C., 1.2 ml", "setting": "[2]; CHCl3", "result": "Susp."},
      {"measurement": "Obs. 50° C.", "setting": "[2]; CHCl3, 1.2 ml", "result": "Susp."},
      {"measurement": "Obs. 20° C., 0.4 ml", "setting": "[2]; CPME", "result": "Susp."},
      {"measurement": "Obs. 20° C., 0.8 ml", "setting": "[2]; CPME", "result": "Susp."},
      {"measurement": "Obs. 20° C., 1.2 ml", "setting": "[2]; CPME", "result": "Susp."},
      {"measurement": "Obs. 50° C.", "setting": "[2]; CPME, 1.2 ml", "result": "Susp."},
      {"measurement": "Obs. 20° C., 0.4 ml", "setting": "[2]; Chlorobenzene", "result": "Susp."},
      {"measurement": "Obs. 20° C., 0.8 ml", "setting": "[2]; Chlorobenzene", "result": "Susp."},
      {"measurement": "Obs. 20° C., 1.2 ml", "setting": "[2]; Chlorobenzene", "result": "Susp."},
      {"measurement": "Obs. 50° C.", "setting": "[2]; Chlorobenzene, 1.2 ml", "result": "Susp."},
      {"measurement": "Obs. 20° C., 0.4 ml", "setting": "[2]; Cyclohexane", "result": "Susp."},
      {"measurement": "Obs. 20° C., 0.8 ml", "setting": "[2]; Cyclohexane", "result": "Susp."},
      {"measurement": "Obs. 20° C., 1.2 ml", "setting": "[2]; Cyclohexane", "result": "Susp."},
      {"measurement": "Obs. 50° C.", "setting": "[2]; Cyclohexane, 1.2 ml", "result": "Susp."},
      {"measurement": "Obs. 20° C., 0.4 ml", "setting": "[2]; EtOAc", "result": "Susp."},
      {"measurement": "Obs. 20° C., 0.8 ml", "setting": "[2]; EtOAc", "result": "Susp."},
      {"measurement": "Obs. 20° C., 1.2 ml", "setting": "[2]; EtOAc", "result": "Susp."},
      {"measurement": "Obs. 50° C.", "setting": "[2]; EtOAc, 1.2 ml", "result": "Susp."},
      {"measurement": "Obs. 20° C., 0.4 ml", "setting": "[2]; EtOH", "result": "Susp."},
      {"measurement": "Obs. 20° C., 0.8 ml", "setting": "[2]; EtOH", "result": "Susp."},
      {"measurement": "Obs. 20° C., 1.2 ml", "setting": "[2]; EtOH", "result": "Susp."},
      {"measurement": "Obs. 50° C.", "setting": "[2]; EtOH, 1.2 ml", "result": "Susp."},
      {"measurement": "Obs. 20° C., 0.4 ml", "setting": "[2]; Heptane", "result": "Susp."},
      {"measurement": "Obs. 20° C., 0.8 ml", "setting": "[2]; Heptane", "result": "Susp."},
      {"measurement": "Obs. 20° C., 1.2 ml", "setting": "[2]; Heptane", "result": "Susp."},
      {"measurement": "Obs. 50° C.", "setting": "[2]; Heptane, 1.2 ml", "result": "Susp."},
      {"measurement": "Obs. 20° C., 0.4 ml", "setting": "[2]; IPA", "result": "Susp."},
      {"measurement": "Obs. 20° C., 0.8 ml", "setting": "[2]; IPA", "result": "Susp."},
      {"measurement": "Obs. 20° C., 1.2 ml", "setting": "[2]; IPA", "result": "Susp."},
      {"measurement": "Obs. 50° C.", "setting": "[2]; IPA, 1.2 ml", "result": "Susp."},
      {"measurement": "Obs. 20° C., 0.4 ml", "setting": "[2]; MEK", "result": "Susp."},
      {"measurement": "Obs. 20° C., 0.8 ml", "setting": "[2]; MEK", "result": "Susp."},
      {"measurement": "Obs. 20° C., 1.2 ml", "setting": "[2]; MEK", "result": "Susp."},
      {"measurement": "Obs. 50° C.", "setting": "[2]; MEK, 1.2 ml", "result": "Susp."},
      {"measurement": "Obs. 20° C., 0.4 ml", "setting": "[2]; MIBK", "result": "Susp."},
      {"measurement": "Obs. 20° C., 0.8 ml", "setting": "[2]; MIBK", "result": "Susp."},
      {"measurement": "Obs. 20° C., 1.2 ml", "setting": "[2]; MIBK", "result": "Susp."},
      {"measurement": "Obs. 50° C.", "setting": "[2]; MIBK, 1.2 ml", "result": "Susp."},
      {"measurement": "Obs. 20° C., 0.4 ml", "setting": "[2]; MeCN", "result": "Susp."},
      {"measurement": "Obs. 20° C., 0.8 ml", "setting": "[2]; MeCN", "result": "Susp."},
      {"measurement": "Obs. 20° C., 1.2 ml", "setting": "[2]; MeCN", "result": "Susp."},
      {"measurement": "Obs. 50° C.", "setting": "[2]; MeCN, 1.2 ml", "result": "Susp."},
      {"measurement": "Obs. 20° C., 0.4 ml", "setting": "[2]; MeOH", "result": "Susp."},
      {"measurement": "Obs. 20° C., 0.8 ml", "setting": "[2]; MeOH", "result": "Susp."},
      {"measurement": "Obs. 20° C., 1.2 ml", "setting": "[2]; MeOH", "result": "Susp."},
      {"measurement": "Obs. 50° C.", "setting": "[2]; MeOH, 1.2 ml", "result": "Susp."},
      {"measurement": "Obs. 20° C., 0.4 ml", "setting": "[2]; Nitromethane", "result": "Susp."},
      {"measurement": "Obs. 20° C., 0.8 ml", "setting": "[2]; Nitromethane", "result": "Susp."},
      {"measurement": "Obs. 20° C., 1.2 ml", "setting": "[2]; Nitromethane", "result": "Susp."},
      {"measurement": "Obs. 50° C.", "setting": "[2]; Nitromethane, 1.2 ml", "result": "Susp."},
      {"measurement": "Obs. 20° C., 0.4 ml", "setting": "[2]; TBME", "result": "Susp."},
      {"measurement": "Obs. 20° C., 0.8 ml", "setting": "[2]; TBME", "result": "Susp."},
      {"measurement": "Obs. 20° C., 1.2 ml", "setting": "[2]; TBME", "result": "Susp."},
      {"measurement": "Obs. 50° C.", "setting": "[2]; TBME, 1.2 ml", "result": "Susp."},
      {"measurement": "Obs. 20° C., 0.4 ml", "setting": "[2]; THF", "result": "Susp."},
      {"measurement": "Obs. 20° C., 0.8 ml", "setting": "[2]; THF", "result": "Susp."},
      {"measurement": "Obs. 20° C., 1.2 ml", "setting": "[2]; THF", "result": "Susp."},
      {"measurement": "Obs. 50° C.", "setting": "[2]; THF, 1.2 ml", "result": "Susp."},
      {"measurement": "Obs. 20° C., 0.4 ml", "setting": "[2]; Toluene", "result": "Susp."},
      {"measurement": "Obs. 20° C., 0.8 ml", "setting": "[2]; Toluene", "result": "Susp."},
      {"measurement": "Obs. 20° C., 1.2 ml", "setting": "[2]; Toluene", "result": "Susp."},
      {"measurement": "Obs. 50° C.", "setting": "[2]; Toluene, 1.2 ml", "result": "Susp."},
      {"measurement": "Obs. 20° C., 0.4 ml", "setting": "[2]; Water", "result": "Susp."},
      {"measurement": "Obs. 20° C., 0.8 ml", "setting": "[2]; Water", "result": "Susp."},
      {"measurement": "Obs. 20° C., 1.2 ml", "setting": "[2]; Water", "result": "Susp."},
      {"measurement": "Obs. 50° C.", "setting": "[2]; Water, 1.2 ml", "result": "Solution"},
      {"measurement": "Obs. 20° C., 0.4 ml", "setting": "[2]; iPrOAc", "result": "Susp."},
      {"measurement": "Obs. 20° C., 0.8 ml", "setting": "[2]; iPrOAc", "result": "Susp."},
      {"measurement": "Obs. 20° C., 1.2 ml", "setting": "[2]; iPrOAc", "result": "Susp."},
      {"measurement": "Obs. 50° C.", "setting": "[2]; iPrOAc, 1.2 ml", "result": "Susp."}
    ]}
  ]
}
